# Literature values in US10299480B2 (priority 2014, dated 2019).
# How the values were obtained:
# [1] = system: adenovirus; details: 10 minute exposure, same conditions
# [2] = system: poliovirus
# [3] = system: herpes virus; details: 10 minute exposure
smiles,measurement,setting,value
"N=C(NCCCCCCNC(=N)NC(=N)Nc1ccc(Cl)cc1)NC(=N)Nc1ccc(Cl)cc1.O=C(O)[C@H](O)[C@@H](O)[C@H](O)[C@H](O)CO.O=C(O)[C@H](O)[C@@H](O)[C@H](O)[C@H](O)CO [CHX, Chlorhexidine digluconate]",Effect on non-enveloped virus,[1],virtually no effect
same,Effect on non-enveloped virus,[2],virtually no effect
same,Reduction of the number of virus particles,[3],5-6 times
